Assay: gradient 5% acetonitrile 3 min, to 50% in 2 min, to 85% in 15 min, held 3 min, 100 µL/min
Settings: column: Zorbax Extend-C18 2.1 x 50 mm; eluents: water / acetonitrile, 0.1% formic acid
Outline: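 The system's dead and dwell volumes were 40 μL and 900 μL, with a Zorbax Extend-C18 column (2.1 × 50 mm, 1.8 μm) run at 100 μL/min in water and acetonitrile containing 0.1% formic acid each. Pure standards were analyzed in mixtures of ~100 molecules by HPLC–quadrupole time-of-flight mass spectrometry in positive and negative ionization mode. Retention time was assigned from computationally picked, manually inspected adduct peaks.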

Row | Structure (SMILES) | RP-LC retention time [s]
1 | O=C(NC1CCN(c2ncnc3c2CCC3)C1)c1ccsc1 (stereo not given) | 580
2 | Cc1csc(-c2cc(S(=O)(=O)NCCN3CCC(C)CC3)cn2CC(=O)N2CCCCC2)n1 | 679
3 | CC1(C(=O)NCc2ccccc2)CCN(S(=O)(=O)c2ccc(Br)cc2)CC1 | 961
4 | CCCn1c(CCNC(=O)c2c(F)cccc2F)nc2cccnc21 | 694
5 | CC(NC(=O)C1CCCN(c2ccc(=O)n(-c3cccc(F)c3)n2)C1)c1ccccc1 (stereo not given) | 868
6 | Cc1ccc(NC(=O)Cc2nnc(-c3cnccn3)o2)c(Cl)c1 | 720
7 | Cn1nnnc1C1CCCN(C(=O)Nc2ccc3c(c2)OCCO3)C1 (stereo not given) | 661
8 | CCOc1ccccc1NC(=O)CN1C(=O)CC(c2cccs2)=Nc2ccccc21 | 1050
9 | CCS(=O)(=O)N1C[C@@H](COc2cccnc2)[C@H](c2ccccn2)C1 | 561
10 | Cn1c(=O)sc2cc(S(=O)(=O)N3CCC(C(=O)Nc4ccccn4)CC3)ccc21 | 684
11 | Cc1cc(C)cc(Nc2c(-c3cccc(O)c3)nc3ncccn23)c1 | 719
12 | CCc1noc(NC(C)=O)c1-c1ccc(OC)c(S(=O)(=O)Nc2cccc(Cl)c2)c1 | 831
13 | COC[C@@H]1CN(S(=O)(=O)Cc2ccccc2)C[C@H]1c1nc(C)no1 | 836
14 | Cc1ccc(S(=O)(=O)N2CCCOC2CNC(=O)C(=O)NCCCn2ccnc2)cc1 (stereo not given) | 558
15 | O=C(Nc1ccc(F)cc1F)C1CCCN(S(=O)(=O)Cc2ccccc2)C1 (stereo not given) | 933
16 | O=C(Cc1ccc(Cl)cc1)N1CCN(c2cc(-c3cccnc3)[nH]n2)CC1 | 636
17 | O=C1NC2(CCN(C(=O)c3ccc4c(c3)OCO4)CC2)N=C1c1cccc(Cl)c1 | 835
18 | O=C(NCC(O)Cc1ccccc1)c1c(F)cccc1F (stereo not given) | 678
19 | Cc1ccc(NC(=O)C2CCN(c3cncnc3N3CCOCC3)CC2)cc1C | 670

Row | Structure (SMILES) | RP-LC retention time [s]
20 | Nc1nc(N2CCC3(CC2)OCCO3)ncc1C(=O)NCc1ccccc1F | 651
21 | Fc1ccc(-c2csc(Nc3ccc(Br)cn3)n2)cc1 | 1230
22 | COCCN(Cc1ccc(F)cc1)Cc1cc(=O)c2cc(Cl)ccc2[nH]1 | 880
23 | COC(=O)c1ccc(-c2nc3cnccn3c2Nc2ccc(Cl)cc2)cc1 | 953
24 | COc1ccc(S(=O)(=O)N2CCCC(C(=O)N3CCCC3)C2)cc1C (stereo not given) | 806
25 | CCc1ccccc1NS(=O)(=O)c1cc2n(c1)CCCNC2=O | 663
26 | CN(C)C(CNC(=O)C(=O)NCc1ccc2c(c1)OCO2)c1ccsc1 (stereo not given) | 556
27 | C=CCn1nc(-c2nc(-c3cccc(Cl)c3)no2)ccc1=O | 1060
28 | COc1ccc(NC(=O)CSc2nccc(N3CCN(c4cccc(OC)c4)CC3)n2)cc1 | 735
29 | Cc1ccc(NC(=O)Nc2cccc(-c3ccc(N4CCOCC4)nn3)c2)cc1F | 739
30 | Cc1cccc(NC(=O)Cn2cc(C(=O)N3CCCC3)c(=O)c3ccc(C)nc32)c1 | 698
31 | Cc1cccc(NC(=O)N2CCC(n3cnc4cc(Cl)ccc4c3=O)CC2)c1 | 877
32 | Cc1ccc2c(c1)C(=O)NC1(CCN(C(=O)c3ccccc3)CC1)N2C | 748
33 | Cc1cc(C)nc(Nc2nc(C(=O)NCCOc3ccc(F)cc3)cs2)n1 | 842
34 | CCOC(=O)N1CCN(C(=O)c2cn(C)nc2C)CC1 | 572
35 | O=C(CSc1nc2ccccc2s1)N1CCN(C(=O)C2CC2c2ccccc2)CC1 (stereo not given) | 867
36 | CC1(C)C(=O)NCCN1C(=O)c1cccc(Cl)c1 | 637
37 | Cc1ccc(NC(=O)N2CCc3c(c(-c4nc(C)no4)nn3C)C2)cc1 | 750
38 | Cc1cnc(-c2ccncc2)n1C1CCN(C(=O)C2(C)CCCCC2)C1 (stereo not given) | 626

Row | Structure (SMILES) | RP-LC retention time [s]
39 | Cc1cc(C)nc(N2CCN(c3ccc(F)cc3)CC2)n1 | 876
40 | O=C(NCCc1ccccc1)c1nnc(-c2ccc(S(=O)(=O)N3CCOCC3)cc2)o1 | 845
41 | Cc1ccc(NS(=O)(=O)c2cc(-c3nc(C(C)C)cs3)cs2)c(Br)c1 | 1220
42 | O=C(c1csc(S(=O)(=O)N2CCC(C(=O)N3CCOCC3)CC2)c1)N1CCOCC1 | 620
43 | COC(=O)c1cnc2nc(-c3ccccc3Cl)nn2c1C | 860
44 | Cn1c(CNC(=O)C2CCC2)nc2c1CN(C(=O)Cc1ccc(Cl)cc1)CC2 | 623
45 | O=C(NCCc1cccs1)C1CN(S(=O)(=O)C2CC2)CC12CCCCC2 (stereo not given) | 934
46 | O=c1c2cc(-c3ccc4c(c3)OCO4)nn2ccn1Cc1nc(-c2cccc(C(F)(F)F)c2)no1 | 1110
47 | Cc1cc2nn(CC(=O)NC(C)C)c(=O)n2c(-c2ccc(C(F)(F)F)cc2)n1 | 576
48 | Cc1ccc(Cl)cc1N1CCN(C(=O)c2[nH]c(C)c(S(=O)(=O)N3CCOCC3)c2C)CC1 | 984
49 | CC1CCCN(C(=O)c2cn(-c3cc(-c4nc(C(C)C)no4)ccn3)cn2)C1 (stereo not given) | 955
50 | O=C(NCCc1ccc(Cl)cc1)C1CCN(C(=O)c2cccn2-c2cccnc2)CC1 | 727
51 | Cn1nc2n(c1=O)CCN(Cc1cn[nH]c1-c1ccc(F)cc1)C2 | 600
52 | O=C(NC1CCCC1)N1CC(Oc2cccc(-c3nc(-c4ccccc4)no3)c2)C1 | 1130
53 | Cc1ccc(N2CCN(C(=O)c3ccc4c(c3)CC(=O)N4C)CC2)cc1 | 796
54 | CC(=O)N1CCC2(CC1)Oc1ccccc1C1CC(c3ccc4c(c3)OCO4)=NN12 (stereo not given) | 783
55 | CCOc1cc(=O)n2c(c1C(=O)Nc1ccc(F)cc1F)CCCC2 | 726
56 | Cc1nn(C)c2c(=O)n(C(C)C(=O)NCc3ccc4c(c3)OCO4)ccc12 (stereo not given) | 715
57 | NC(=O)Cn1cnc2nc(N3CCC(C(=O)NC4CC4)CC3)sc2c1=O | 566

Other lines, results leading:

Row | RP-LC retention time [s] | Structure (SMILES)
58 | 868 | O=C(C1=CN(c2cccc(Cl)c2)c2cc(F)ccc2S1(=O)=O)N1CCCC1
59 | 1200 | CCN(CC)S(=O)(=O)c1cc(-c2nnc(-c3cccc(C)c3)o2)ccc1Cl
60 | 1220 | COc1ccc(-c2nnc(-c3ccc(C)c(S(=O)(=O)N4CCC(C)CC4)c3)o2)cc1
61 | 864 | CCC(=O)N(CC(=O)N(Cc1ccc2c(c1)OCO2)Cc1sccc1C)CC1CCCO1 (stereo not given)
62 | 975 | Cc1ccccc1CNC(=O)CN1C(=O)CCCc2cc(S(=O)(=O)N3CCC(C)CC3)ccc21
63 | 873 | Cc1ccc(S(=O)(=O)NNC(=O)C23CCC(CC2)C3)cc1
64 | 1100 | COC(=O)Cc1[nH]c(=O)[nH]c1C(=O)OC
65 | 570 | Cc1nnc2c(=O)n(CC(=O)NCc3ccc(N(C)C)cc3)c3cccnc3n12
66 | 626 | Cc1nnc(NC(=O)CN2CCN(c3ccccc3F)C2=O)s1
67 | 944 | CN(CCc1noc(COc2ccc(Cl)cc2)n1)C(=O)NCc1ccccc1
68 | 1170 | CC1CCc2nc(NC(=O)c3cc(Cl)sc3Cl)sc2C1 (stereo not given)
69 | 722 | COCCNCc1ccc(-c2cc(Cl)cc(Cl)c2)o1
70 | 635 | Cc1csc(C(=O)Nc2ccc(CC(=O)N3CCC(O)CC3)cc2)c1
71 | 921 | COc1cccc(COC(=O)C2=CN(C)S(=O)(=O)N=C2C)c1
72 | 634 | Cc1nnc2n1CCC(N(C)S(=O)(=O)c1ccccc1F)CC2 (stereo not given)
73 | 693 | O=C(NCCN1CCOCC1)C1CCN(c2ccc3nnc(-c4ccccc4F)n3n2)CC1
74 | 891 | CCCNC(=O)CCc1nc2ccccc2n(CC(=O)Nc2ccc(C(C)C)cc2)c1=O

Row | RP-LC retention time [s] | Structure (SMILES)
75 | 716 | CN1C(=O)CCc2cc(NS(=O)(=O)c3cccc4nsnc34)ccc21
76 | 1080 | Cc1cc(C)c2c(N)c(C(=O)Nc3cccc4cccnc34)sc2n1
77 | 720 | Cc1nc2ccn(Cc3ccco3)c(=O)c2cc1C(=O)NCCc1ccco1
78 | 794 | COc1cccc(Nc2c(-c3ccc(OC)c(OC)c3)nc3cnccn23)c1
79 | 662 | CCNc1cc(N2CCCC(CCC(=O)NCCC(C)C)C2)ncn1 (stereo not given)
80 | 752 | COc1ccc(CNC(=O)Cn2nc3cc(C)nc(-c4ccccc4)n3c2=O)cc1
81 | 638 | CCN1CCN(c2cc(C(=O)O)c3cc(NS(=O)(=O)c4ccc(C)cc4C)ccc3n2)CC1
82 | 881 | CCn1cc(S(=O)(=O)N2CCC(c3noc(-c4ccccc4)n3)C2)cn1 (stereo not given)
83 | 917 | CCOc1ccc(NC(=O)c2cc(C)n3nccc3n2)cc1
84 | 892 | COc1cc(Nc2ncc(C(=O)O)c(C(C)C)n2)cc(OC)c1
85 | 970 | COc1ccc(-c2noc(C3CC(=O)N(c4cc(C)cc(C)c4)C3)n2)c(OC)c1 (stereo not given)
86 | 746 | Cc1cc(NC(=O)C2CCN(C(=O)c3nc4ccccc4s3)CC2)no1
87 | 621 | COc1ccccc1OC(C)C(=O)N1CCN(c2nc(CN3CCOCC3)cs2)CC1 (stereo not given)
88 | 513 | CCn1cc(CN2CCn3c(nnc3[C@@H]3C[C@@H](O)CN3Cc3cccnc3)C2)c(C)n1
89 | 601 | c1ccc(Cn2cnnc2C2CCCCN2Cc2ccoc2)cc1 (stereo not given)
90 | 917 | CCCNC(=O)N(Cc1c(C)nn(-c2ccccc2)c1Oc1ccccc1OC)CC1CCCO1 (stereo not given)
